For data set [1], the system named is CYP3A4. Kind of data set: Cocktail method in rats: pharmacokinetics of probe drug midazolam (CYP3A4 activity). As to conditions: male, Wistar, rat, plasma, iv, 5 mg/kg, midazolam 5 mg/kg iv; for AUC(0-t): AUC0~t; for AUC(0-inf): AUC0~∞; for clearance: Cl.
Experimental: (§1) UltiMate3000 HPLC equipped with diode array detector was used to analyze the compounds.
(§2) Forty-eight male Wistar rats (220 ± 20 g) were randomly divided into two control groups, two Digeda groups, and two positive groups (n=8). […] The other groups were given the mixture of two probe drugs (omeprazole and midazolam were 10 mg/kg and 5 mg/kg) by intravenous injection.
(§3) The samples were immediately centrifuged at 3500 r/min for 10 min, and 200 μL plasma was obtained from each sample.
(§4) The plasma samples were extracted. In a 5 mL centrifuge tube, 100 μL of the IS working solution (0.1 mg/mL) was added to 200 uL of collected plasma sample followed by the addition of 2 mL of dichloromethane. After the tube was vortex-mixed for 5 min, the sample was centrifuged at 3500 r/min for 10 min. 1.2 mL of the organic phase was transferred into the other glass tube and was dried by nitrogen. The residue was redissolved with 200 μL methanol and then injected into the HPLC system for analysis. The concentration of probe drugs in plasma was measured by HPLC.
(§5) Plasma probe drug concentration versus time data for each rat was analyzed by DAS software (version 3.0, Drug Clinical Research Center of Shanghai University of TCM and Shanghai BioGuider Medicinal Technology, Co. Ltd., China). The pharmacokinetic parameters of the Digeda group and control group probe drugs with the t-test were analyzed using SPSS 17.0 statistical software. p < 0.05 was considered statistically significant.
Data set [2] relates to CYP3A4. The settings on record: healthy volunteers; cited from earlier work.
In data set [3] the test system is CYP1A2. Also on record: method as in ref 43 = [43]; 43 Du Y. Zhu R.-H. Su F.-L. Wang F. Liang H.-X. Li H.-D. Effect of oleanolic acid on CYP1A2, CYP2E1 and CYP3A4 activity in healthy subjects Chinese Pharmaceutical Journal 2008 43 4 300 303 2-s2.0-5304. As to conditions: healthy volunteers; cited from earlier work.
In the next data set the test system is CYP2E1. Also on record: method as in ref 43 = [43]; 43 Du Y. Zhu R.-H. Su F.-L. Wang F. Liang H.-X. Li H.-D. Effect of oleanolic acid on CYP1A2, CYP2E1 and CYP3A4 activity in healthy subjects Chinese Pharmaceutical Journal 2008 43 4 300 303 2-s2.0-5304. The settings on record: healthy volunteers; cited from earlier work.
In data set [4] the test system is CYP2C19. The data set is described as follows: Cocktail method in rats: pharmacokinetics of probe drug omeprazole (CYP2C19 activity). It is filed as in vivo. The settings on record: male, Wistar, omeprazole 10 mg/kg iv.
Experimental: as §1, §2, §3, §4, §5
Data set [5] has as its target T1, CYP1A2 (Rattus norvegicus, UniProt P04799).
T1 construct: from tissue; host or cells: whole animal, male Wistar rats (in vivo pharmacokinetics)
T1 sequence (P04799 1-513): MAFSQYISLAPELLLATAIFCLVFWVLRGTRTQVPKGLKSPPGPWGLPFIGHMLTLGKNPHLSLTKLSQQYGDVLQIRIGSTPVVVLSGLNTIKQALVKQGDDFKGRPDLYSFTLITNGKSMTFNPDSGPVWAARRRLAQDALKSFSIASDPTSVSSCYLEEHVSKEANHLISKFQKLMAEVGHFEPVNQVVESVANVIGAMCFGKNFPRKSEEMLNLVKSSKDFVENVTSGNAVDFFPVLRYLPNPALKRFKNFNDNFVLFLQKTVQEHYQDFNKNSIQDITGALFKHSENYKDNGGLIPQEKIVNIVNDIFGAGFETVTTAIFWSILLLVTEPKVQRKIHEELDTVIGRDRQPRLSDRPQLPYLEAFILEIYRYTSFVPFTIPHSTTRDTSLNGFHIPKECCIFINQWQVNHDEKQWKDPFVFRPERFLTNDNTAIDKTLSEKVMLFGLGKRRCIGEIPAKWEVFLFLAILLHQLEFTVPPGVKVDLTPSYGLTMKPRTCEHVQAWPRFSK
The data set is described as follows: Cocktail method in rats: pharmacokinetics of probe drug theophylline (CYP1A2 activity). As to conditions: male, Wistar, plasma, iv, 10 mg/kg, theophylline 10 mg/kg iv. It is filed as in vivo.
Experimental: as §1, §2, §3, §4, §5

Data set [6] has as its system CYP3A4. Also on record: method as in ref 45 = [45]; 45 Han Y. L. Meng X. L. Li D. In Vitro Inhibition of Six Cytochrome P450 Isoforms in Human Liver Microsomes by Qingkailing Injection and Its Two Active Components(Baicalin and Geniposide) Chinese Phar. As to conditions: Han's research; cited from earlier work.
Data set [7] relates to CYP2C9. Also on record: method as in ref 45 = [45]; 45 Han Y. L. Meng X. L. Li D. In Vitro Inhibition of Six Cytochrome P450 Isoforms in Human Liver Microsomes by Qingkailing Injection and Its Two Active Components(Baicalin and Geniposide) Chinese Phar. As to conditions: Han's research; cited from earlier work.
Data set [8] relates to CYP1A2. On the set-up: method as in ref 45 = [45]; 45 Han Y. L. Meng X. L. Li D. In Vitro Inhibition of Six Cytochrome P450 Isoforms in Human Liver Microsomes by Qingkailing Injection and Its Two Active Components(Baicalin and Geniposide) Chinese Phar. The settings on record: Han's research; cited from earlier work.
The test system of data set [9] is CYP2C19. Also on record: method as in ref 45 = [45]; 45 Han Y. L. Meng X. L. Li D. In Vitro Inhibition of Six Cytochrome P450 Isoforms in Human Liver Microsomes by Qingkailing Injection and Its Two Active Components(Baicalin and Geniposide) Chinese Phar. The settings on record: Han's research; cited from earlier work.
Data set [10] relates to CYP2C19. The settings on record: in vivo; cited from earlier work.
In data set [11] the test system is CYP2C9. Also on record: method as in ref 44 = [44]; 44 Zhang Y. D. Liu X. Q. Guo Y. L. Effects of 20 active ingredients of traditional Chinese herbs on CYP2C9 activities in rat liver microsomes Journal of Third Military Medical University 2013 35 24 26. The settings on record: rat liver microsomes in vitro; cited from earlier work.
[12] abbreviates: Digeda group (Digeda-4 decoction 600 mg/kg ig 14 days).
Setting [13] is: control group (saline ig 14 days).
Where [14] appears, read: positive group (phenobarbital 50 mg/kg ip 7 days).
Where [15] appears, read: positive group (phenobarbital 50 mg/kg ip 7 days), rat plasma.
[16] abbreviates: rat, plasma, iv, 10 mg/kg, Digeda group (Digeda-4 decoction 600 mg/kg ig 14 days).
[17] abbreviates: rat, plasma, iv, 10 mg/kg, control group (saline ig 14 days).
Where [18] appears, read: rat, plasma, iv, 10 mg/kg, positive group (phenobarbital 50 mg/kg ip 7 days).

The values below come from publication PMC6218799 (BioMed Research International, 2018).

Turning to `Cc1ncc2n1-c1ccc(Cl)cc1C(c1ccccc1F)=NC2` [Midazolam, midazolam], the exposure AUC(0-t) worked out at 1170 ± 209 ng·h/mL in the data set on CYP3A4 [1] (setting [12]), 881 ± 151 ng·h/mL with CYP3A4 [1] (setting [13]) and 653 ± 95 ng·h/mL with CYP3A4 [1] (setting [14]). Also, the AUC(0-inf) with CYP3A4 [1] (setting [12]) worked out at 1360 ± 309 ng·h/mL; in the data set on CYP3A4 [1] (setting [13]) it was 928 ± 157 ng·h/mL; in the data set with CYP3A4 [1] (setting [14]) it was 711 ± 125 ng·h/mL. The results for the clearance with CYP3A4 [1] (setting [12]), in the data set on CYP3A4 [1] (setting [13]) and with CYP3A4 [1] (setting [14]) were 69.7 mL/min/kg, 104 mL/min/kg and 115 mL/min/kg, respectively. Also, the peak concentration (Cmax) with CYP3A4 [1] (setting [12]) was determined as 2680 ± 509 ng/mL; in the data set on CYP3A4 [1] (setting [13]) it was 2900 ± 491 ng/mL; with CYP3A4 [1] (setting [14]), 2560 ± 507 ng/mL. Moreover, the half-life with CYP3A4 [1] (T1/2, Digeda group (Digeda-4 decoction 600 mg/kg ig 14 days)) is 11.9 ± 1.92 min; in the data set on CYP3A4 [1] (T1/2, control group (saline ig 14 days)), 8.64 ± 1.8 min; in the data set on CYP3A4 [1] (T1/2, positive group (phenobarbital 50 mg/kg ip 7 days)), 6.3 ± 0.96 min.

On to `CC1(C)CC[C@]2(C(=O)O)CC[C@]3(C)C(=CC[C@@H]4[C@@]5(C)CC[C@H](O)C(C)(C)[C@@H]5CC[C@]43C)[C@@H]2C1` [Oleanolic acid], for which, in the data set on CYP3A4 [2], the “effect on CYP3A4” value is listed as “no effect”. Besides, the “effect on CYP1A2 activity” value in the data set with CYP1A2 [3] is on record as “can inhibit CYP1A2 activity significantly”. In addition, in the data set on CYP2E1, the “effect on CYP2E1 activity” value is “little inhibition”.

Turning to `COc1ccc2[nH]c([S+]([O-])Cc3ncc(C)c(OC)c3C)nc2c1` (stereo not drawn) [Omeprazole, omeprazole], in the data set on CYP2C19 [4] (setting [15]), the clearance was 10.2 mL/min/kg and the half-life was 7.08 ± 1.2 min. In the data set on CYP2C19 [4] (setting [16]), this molecule gave a total exposure AUC(0-inf) of 14200 ± 2610 ng·h/mL, an exposure AUC(0-t) of 13300 ± 2630 ng·h/mL, a Cmax of 38600 ± 6690 ng/mL and a clearance of 4.9 mL/min/kg. This molecule had a half-life with CYP2C19 [4] (setting [16]) of 16.9 ± 2.76 min. In the data set on CYP2C19 [4] (setting [17]), this molecule showed an AUC(0-inf) of 7280 ± 1310 ng·h/mL, an AUC(0-t) of 6920 ± 1390 ng·h/mL, a Cmax of 20900 ± 3710 ng/mL and a clearance of 8 mL/min/kg. The same molecule gave a half-life in the data set with CYP2C19 [4] (setting [17]) of 9.78 ± 1.92 min. In the data set with CYP2C19 [4] (setting [18]), the AUC(0-inf) was determined as 5340 ± 993 ng·h/mL, the AUC(0-t) amounted to 4980 ± 845 ng·h/mL and the highest level (Cmax) was 16900 ± 2630 ng/mL.

At CYP1A2 [5] (setting [12]), `Cn1c(=O)c2[nH]cnc2n(C)c1=O` [Theophylline, theophylline] gave a total exposure AUC(0-inf) of 569000 ± 142000 ng·h/mL, an area under the curve AUC(0-t) of 299000 ± 67000 ng·h/mL, a Cmax of 30700 ± 5450 ng/mL and a clearance of 0.333 mL/min/kg. The same molecule had a half-life on CYP1A2 [5] (setting [12]) of 835 ± 160 min. On CYP1A2 [5] (setting [13]), this molecule had a total exposure AUC(0-inf) of 326000 ± 76900 ng·h/mL, an AUC(0-t) of 206000 ± 37100 ng·h/mL, a Cmax of 31800 ± 5610 ng/mL and a clearance of 0.55 mL/min/kg. The half-life at CYP1A2 [5] (setting [13]) is 402 ± 97.5 min. For the same molecule, on CYP1A2 [5] (setting [14]), the AUC(0-inf) was determined as 118000 ± 21400 ng·h/mL, the AUC(0-t) worked out at 71900 ± 15400 ng·h/mL, the Cmax worked out at 30000 ± 5180 ng/mL and the clearance was 1.02 mL/min/kg. Besides, the half-life on CYP1A2 [5] (setting [14]) was 148 ± 21.5 min.

With `COC(=O)C1=CO[C@@H](O[C@@H]2O[C@H](CO)[C@@H](O)[C@H](O)[C@H]2O)[C@@H]2C(CO)=CC[C@H]12` [geniposide], the “inhibitory effect on CYP3A4” value with CYP3A4 [6] is listed as “no inhibitory effect”. Moreover, the “inhibitory effect on CYP2C9” value in the data set on CYP2C9 [7] is “no inhibitory effect”. For the same molecule, the “inhibitory effect on CYP1A2” value with CYP1A2 [8] is “no inhibitory effect”. Moreover, in the data set on CYP2C19 [9], the “inhibitory effect on CYP2C19” value is “no inhibitory effect”.

Turning to `COc1cc(C(=O)O[C@H]2[C@@H]3C=CO[C@@H](O[C@@H]4O[C@H](CO)[C@@H](O)[C@H](O)[C@H]4O)[C@@H]3[C@@]3(CO)O[C@@H]23)ccc1O` [picroside II], the “effect on the activity of CYP2C19” value in the data set with CYP2C19 [10] was “inhibitory effect”.

Regarding `C=C[C@H]1[C@H](O[C@@H]2O[C@H](CO)[C@@H](O)[C@H](O)[C@H]2O)OC=C2C(=O)OCC[C@]21O` [swertiamarin], the “effect on CYP2C9 activity” value in the data set with CYP2C9 [11] is on record as “inhibitory effect”.
